Source: US6552006B2, “Immunomodulatory polynucleotides in treatment of an infection by an intracellular pathogen” (The Regents of the University of California, priority 2000, dated 2003)

Legend:
M. avium [1] = test: Intracellular growth of M. avium in mouse bone marrow-derived macrophages (mBMDM) in vitro, CFU assay; format: cell-based, Mycobacterium avium; settings: for M. avium growth in mBMDM: L-try (final 66 μg/ml) or M-try (125 μM) alone; for reductions in the anti-mycobacterial ability of ISS treatment: M. avium-infected mBMDM cultured with L-try (66 μg/ml) or M-try (125 μM) supplemented media plus ISS; for % of CFU: 10 μg/ml 72 h prior to infection, day 7, medium alone = 100%
Description: A previously studied M. avium strain 13 (Hayashi, et al. (1999) Infect. Immun. 67:3558-3565; Meylan, et al. (1990) Infect. Immun. 58:2564-2568), isolated from an AIDS patient at UCSD, San Diego, Calif., was used in all experiments. The organism was cultured on Middlebrook 7H11 agar (Difco Laboratories, Detroit, Mich.) with OADC enrichment at 37° C. in the presence of 5% CO2 for two weeks. Transparent colonies were selectively picked and further cultured on Middlebrook 7H11 plates for two more weeks. The resulting colonies, which were predominantly transparent (>90%), were then collected and washed two times with phosphate-buffered saline (PBS). The bacteria were finally resuspended in Middlebrook 7H9 broth (Difco Laboratories) and the OD600 of the suspension was adjusted to 0.15-0.2. The suspension was aliquoted and stored at −70° C. until use. The number of organisms/ml of this suspension was determined by the colony forming unit (CFU) assay.
The number of CFU in a given sample was determined by colony counting as described previously (Ogata, et al. (1992) Infect. Immun. 60:4720-4725). Serial 10-fold dilutions of total cell lysates or tissue homogenates were performed in PBS. 10 μl of each dilution were plated on Middlebrook 7H11 plates supplemented with OADC enrichment. The plates were incubated up to 14 days at 37° C. The number of colonies was counted every alternate day from day 10 onwards until no new colonies appeared. This yielded the number of CFU/10 μl. The number of CFU in each well was then calculated.
Preparation of Murine Macrophages. Mouse bone marrow-derived macrophages (mBMDM) were prepared from mouse bone marrow using L-cell conditioned media, as described in Martin-Orozco, et al. (1999) […] 11:1111-1118.
Alternatively, 5×10^4 mBMDM or hMDM was treated with ISS for 3 days before infection. Macrophages treated with M-ODN or with media alone served as controls. After 3 days, the cells were infected for 2 hrs with M. avium at a macrophage:bacteria ratio of 2:1 for mBMDM or of 1:10 for hMDM, and subsequently cultured in fresh media without antibiotics. To examine attachment and/or invasion of M. avium, the macrophages were lysed immediately after washing, and the number of bacteria were enumerated by the CFU assay. Intracellular growth of M. avium was determined on days 1, 3, and 7 after infection. To account for all the mycobacteria in each group, corresponding lysates were combined and then the number of CFU was determined. To examine the efficacy of anti-mycobacterial treatments, CFU recovered from cells treated with medium alone were considered as 100% growth.
To determine whether treatment with ISS after infection alters M. avium growth, adherent cells were first infected with M. avium for 2 hrs and then these cells were cultured with fresh media containing ISS. Infected cells treated with M-ODN or medium alone served as controls. At day 7, intracellular growth of M. avium was assessed by CFU assay.

L. major = settings: BALB/c mice; injection four hours after inoculation with live L. major promastigotes; cited from earlier work
M. avium [2] = test: Growth of M. avium in vivo in C57B1/6 mice, CFU per organ; design: species or system Mycobacterium avium
mBMDM = test: Viability of mBMDM (trypan-blue exclusion); format: cell-based, mouse
Description: To examine whether treatment with ISS can stimulate macrophages to inhibit the growth of M. avium, mBMDM (5×10^4 mBMDM/well) was first treated with ISS or M-ODN for 72 hrs and then infected with M. avium. Then, cellular CFU was counted on days 1, 3, and 7 post-infection (FIG. 9A). By day 7, treatment with ISS inhibited intracellular growth of M. avium in mBMDM by 80% (p<0.001). Since viability of macrophages can affect M. avium growth, the viability of macrophages was assessed by trypan-blue exclusion. […]

[3] = system: indoleamine 2,3-dioxygenase (IDO); test: IDO gene induction in vivo in mice, semi-quantitative RT-PCR; settings: injection of M-ODN in mice
[4] = C57B1/6 mice, 10^7 CFU i.v., treatment from one week after infection, CLA 200 mg/kg alone, 5 weeks after infection

## N[C@@H](Cc1c[nH]c2ccccc12)C(=O)O [L-try, L-tryptophan]
M. avium [1]
  M. avium growth in mBMDM: did not alter
  reductions in the anti-mycobacterial ability of ISS treatment: 4 fold

## CpG-ODN 1826
L. major
  animals protected from progressive infection: 65%

## 5′-TGACTGTGAAGGTTAGAGATGA-3′ (SEQ ID NO:3) (chemistry not given here) [M-ODN, mutated control oligodeoxynucleotide with 2 base alteration of the CpG motif]
M. avium [2]; 10^7 organisms/mouse, four weeks after infection
  CFU in the spleen and lungs compared with control (PBS) mice: similar
M. avium [1]; mBMDM from IFN-αR−/− 129S6/SvEv
  % of CFU: 106.9 ± 11.9%
M. avium [1]; mBMDM from IFN-γR−/− 129S6/SvEv
  % of CFU: 108.1 ± 10.8%
M. avium [1]; mBMDM from IL-12 p40−/− C57B1/6
  % of CFU: 117.6 ± 9.2%
M. avium [1]; mBMDM from INOS−/− C57B1/6
  % of CFU: 105.0 ± 13.9%
M. avium [1]; mBMDM from NADPH oxidase−/− (gp91 phox−/−) C57B1/6
  % of CFU: 107.0 ± 15.5%
M. avium [1]; mBMDM from TNF-α−/− C57B1/6
  % of CFU: 120.0 ± 20.0%
M. avium [1]; mBMDM from Wild type 129S6/SvEV
  % of CFU: 110.0 ± 15.9%
M. avium [1]; mBMDM from Wild type C57B1/6
  % of CFU: 117.2 ± 18.5%
mBMDM
  viable mBMDM: > 90%
[3]
  induction of IDO after injection: did not result in any detectable induction of IDO

## Cn1cc(CC(N)C(=O)O)c2ccccc21 (racemic) [M-try, 1-methyl-DL-tryptophan]
M. avium [1]
  M. avium growth in mBMDM: did not alter
  reductions in the anti-mycobacterial ability of ISS treatment: 4 fold
mBMDM; L-try (final 66 μg/ml) or M-try (125 μM) alone
  viability of mBMDM: did not alter

## CC[C@H]1OC(=O)[C@H](C)[C@@H](O[C@H]2C[C@@](C)(OC)[C@@H](O)[C@H](C)O2)[C@H](C)[C@@H](O[C@@H]2O[C@H](C)C[C@H](N(C)C)[C@H]2O)[C@](C)(OC)C[C@@H](C)C(=O)[C@H](C)[C@@H](O)[C@]1(C)O [CLA, Clarithromycin, reference compound]
M. avium [2]; [4]
  decrease of bacterial growth in the liver: 4 log
  decrease of bacterial growth in the lungs: 1.5 log
  decrease of bacterial growth in the spleen: 4 log
M. avium [1]; mBMDM infected first, then treated, ISS 10 μg/ml, CLA 0.1 μg/ml, 7 days after infection, compared to medium alone
  reduction of bacterial growth in mBMDM: 84%
